Values joined by “and” are separate entries in the source; they are usually repeats but may differ in a detail not shown here. Identical values can stand only once.
Row | SMILES | melting point
1 | Fc1ccc(C2(Cn3cncn3)OC2c2ccccc2Cl)cc1 (stereo unspecified) | 125 °C
2 | N#CCC(=O)c1cccs1 [3-oxo-3-(2-thienyl)propionitrile] | 134 °C
3 | CCCCCCCCCCCC(=O)OCCCC [N-butyl dodecanoate] | -10 °C
4 | CC(C)I [2-Iodopropane] | -90 °C
5 | C=C(C)C(=O)O [methacrylic acid] | 16 °C
6 | O=C(O)/C=C/c1ccc(Cl)cc1Cl [trans-2,4-dichlorocinnamic acid] | 234 °C
7 | COc1ccc(CCCC(=O)O)cc1 [4-(4-methoxyphenyl)butanoic acid] | 59 °C
8 | O=C(O)c1ccc(Br)cc1 [4-bromobenzoic acid] | 253 °C
9 | CC(=O)O[C@@H]1CCC2(C)C(CCC3C2CCC2(C)C3CC[C@]2(O)/C=C/c2ccccc2)C1 (stereo partly specified) | 162 °C
10 | CC(C)(C)OC(=O)/N=N/C(=O)OC(C)(C)C [di-tert-butyl azodicarboxylate] | 91 °C
11 | O=C(O)c1cc(Cl)ccc1Cl [2,5-dichlorobenzoic acid] | 153 °C
12 | COC(C)=O [Methyl acetate] | -98 °C
13 | CCOC(=O)C(NC(=O)c1ccccc1)C(=O)OCC [diethyl benzamidomalonate] | 63 °C
14 | Fc1ccc(Cl)cc1 [1-chloro-4-fluorobenzene] | -22 °C
15 | C[C@@H](O)[C@@H](C)O [(2R,3R)-Butane-2,3-diol] | 16 °C
16 | CCOC(=O)c1cnn(C)c1N [ethyl 5-amino-1-methyl-1h-pyrazole-4-carboxylate] | 100 °C
17 | Clc1ccc(-c2ccc(Cl)cc2)cc1 [PCB-15] | 149 °C
18 | CCCCCCCCCCCl [1-chlorodecane] | -31 °C
19 | OB(O)c1ccc2[nH]ccc2c1 [indole-5-boronic acid] | 173 °C
20 | Nc1nc[nH]n1 [3-amino-1,2,4-triazole] | 151 °C
21 | C1=CC=CC=CC=C1 [1,3,5,7-cyclooctatetraene] | -27 °C
22 | Fc1c(F)c(F)c(-c2c(F)c(F)c(F)c(F)c2F)c(F)c1F [decafluorobiphenyl] | 68 °C
23 | Brc1cccc(I)c1 [1-bromo-3-iodobenzene] | -9 °C
24 | O=C1CCCCCCCCCCCCCCO1 [pentadecanolide] | 35 °C

Row | SMILES | melting point
25 | O=[N+]([O-])c1cccc(I)c1 [1-iodo-3-nitrobenzene] | 37 °C
26 | O=Cc1ccc([N+](=O)[O-])o1 [5-nitro-2-furaldehyde] | 36 °C
27 | O=S(=O)(O)CCCN1CCOCC1 [3-(Morpholin-4-yl)propane-1-sulfonic acid] | 277 °C
28 | Nc1ccc(Br)c(Cl)c1 [4-bromo-3-chloroaniline] | 64 °C
29 | CCOc1ccccc1B(O)O [2-ethoxybenzeneboronic acid] | 100 °C
30 | CN(C)c1ccc(C=O)cc1 [4-dimethylaminobenzaldehyde] | 74.5 °C
31 | CCCCCCCCCCCCCCCCCCCCCCCCCCCCCCCCCCCCCCCCCCCC [tetratetracontane] | 88 °C
32 | COc1ccc2c(c1)CC2=O [3-methoxybicyclo[4.2.0]octa-1,3,5-trien-7-one] | 52 °C
33 | CCOC(=O)C(=Nn1nnc2ccccc21)C(=O)OCC [diethyl (1h-benzotriazol-1-yl)iminomalonate] | 100 °C
34 | Cc1cc(Cl)c(C)cc1Cl [2,5-Dichloro-p-xylene] | 70 °C
35 | Fc1ccc(/C=N/n2c(S)nnc2C(F)(F)F)cc1 | 212 °C
36 | O=S(=O)([O-])CCN1CC[NH+](CCO)CC1 [2-[4-(2-Hydroxyethyl)piperazin-4-ium-1-yl]ethanesulfonate] | 236 °C
37 | Nc1ccc(Br)cc1Br [2,4-dibromoaniline] | 80 °C
38 | FC(F)(F)C(F)(F)F [Hexafluoroethane] | -100 °C
39 | COc1ccc(C(N)=O)cc1 [4-methoxybenzamide] | 166 °C
40 | CCCCCCCCCCC [Undecane] | -26 °C
41 | Cc1cc(CO)nn1-c1ccccn1 [(5-methyl-1-pyridin-2-yl-1H-pyrazol-3-yl)methanol] | 45 °C
42 | CC(C)(C)OC(=O)N1CCC[C@@H]1C(=O)O [N-boc-D-proline] | 134 °C
43 | O=[N+]([O-])c1ccc(Cl)cc1 [1-chloro-4-nitrobenzene] | 84 °C
44 | C=C[C@H]1C[N@@]2CC[C@H]1C[C@@H]2[C@@H](O)c1ccnc2ccc(OC)cc12 [quinidine] | 170 °C
45 | CC(C(=O)O)c1cccc(C(=O)c2ccccc2)c1 (stereo not drawn) [(+/+)-ketoprofen] | 93.9 °C
46 | Oc1ccnc2ccc(C(F)(F)F)cc12 [4-hydroxy-6-(trifluoromethyl)quinoline] | 267 °C
47 | O=C(c1ccccc1)c1cccs1 [Phenyl(2-thienyl)methanone] | 57 °C
48 | OC(c1ccccc1)(c1ccccc1)C(O)(c1ccccc1)c1ccccc1 [benzopinacol] | 177 °C

Row | SMILES | melting point
49 | C=C(Br)CC1(C(C)C)C(=O)NC(=O)NC1=O [propallylonal] | 177 °C
50 | O=C(O)CC1Sc2ccccc2NC1=O (stereo unspecified) [3,4-dihydro-3-oxo-2h-1,4-benzothiazine-2-acetic acid] | 188 °C
51 | CCC1(C2=CCCCCC2)C(=O)NC(=O)NC1=O [heptabarbital] | 174 °C
52 | CCN(Cc1ccncc1)C(=O)C(CO)c1ccccc1 (stereo unspecified) [tropicamide] | 96 °C
53 | CCOC(=O)c1ccc(N)cc1 [ethyl-4-aminobenzoate (benzocaine)] | 89 °C
54 | CC(C)(C)OC(=O)N[C@](C)(C(=O)O)c1ccc2ccccc2c1 [N-boc-2-(2-naphthyl)-D-alanine] | 98 °C
55 | CCOC(=O)CCC(=O)OCC [diethyl_succinate] | -20 °C
56 | C=C[C@H]1CN2CC[C@H]1C[C@H]2[C@H](O)c1ccnc2ccc(OC)cc12 [quinine] | 176 °C and 174 °C
57 | CCOC(=O)CC(C)C [ethyl_isovalerate] | -99 °C
58 | CC(=O)S [thioacetic acid] | -17 °C
59 | OB(O)c1ccccc1Br [2-bromobenzeneboronic acid] | 109 °C
60 | O=C(NC1CCN(CCc2c[nH]c3ccccc23)CC1)c1ccccc1 [indoramin] | 208 °C
61 | CCC1=Nc2ccccc2C1(C)C(=O)OC (stereo unspecified) [methyl 2-ethyl-3-methyl-3H-indole-3-carboxylate] | 72 °C
62 | CCCCCCCCCCCCC [N-tridecane] | -5 °C
63 | c1ccc(CCc2ccccc2)cc1 [bibenzyl] | 55 °C
64 | COc1ccc(C=O)cc1 [p-anisaldehyde] | 1 °C
65 | C[C@H]1CC[C@@H](C)CC1 [cis-1,4-dimethylcyclohexane] | -87 °C
66 | Cn1ncc(Br)c1N [5-amino-4-bromo-1-methyl-1h-pyrazole] | 99 °C
67 | CCCCC(=O)CC [Heptan-3-one] | -39 °C
68 | ON=Cc1ccccn1 [pyridine-2-carboxaldoxime] | 111 °C
69 | Cc1ccc(O)c(C(C)(C)C)c1 [2-tert-butyl-4-methylphenol] | 52 °C
70 | CC(C)(C)OC(=O)N[C@@H](Cc1ccc(Cl)cc1Cl)C(=O)O [N-boc-2,4-dichloro-L-phenylalanine] | 135 °C
71 | CC1(C)C2CC[C@]1(C)C(=O)C2 [(1S)-1,7,7-Trimethylbicyclo[2.2.1]heptan-2-one] | 179 °C

From the Bradley open melting point set (2014)
